According to BindingDB's records for doi:10.1021/acs.jmedchem.8b01719 (Glaxosmithkline, 2019):

Key:
[1] = Inhibition of HCV genotype 1b wild-type NS5B RNA dependent RNA polymerase infected in human HuH7 Lunet replicon cells assessed as reduction in viral replication after 48 hrs by steady-glo luciferase reporter gene assay
[2] = Inhibition of HCV genotype 1b NS5B RNA dependent RNA polymerase C316N mutant infected in human HuH7 Lunet replicon cells assessed as reduction in viral replication after 48 hrs by steady-glo luciferase reporter gene assay
[3] = Inhibition of HCV genotype 1a wild-type NS5B RNA dependent RNA polymerase transfected in human HuH7 Lunet replicon cells assessed as reduction in viral replication after 3 days by steady-glo luciferase reporter gene assay
[4] = Inhibition of HCV genotype 1a NS5B RNA dependent RNA polymerase C316Y mutant transfected in human HuH7 Lunet replicon cells assessed as reduction in viral replication after 3 days by steady-glo luciferase reporter gene assay

Row | SMILES | EC50 [1] | EC50 [2] | EC50 [3] | EC50 [4]
1 | CNC(=O)c1c(-c2ccc(F)cc2)oc2cc(N3C(=O)NCC3c3ccc(B(O)O)cc3)c(C3CC3)cc12 (centres undefined) | 250 nM | 3200 nM |  | 
2 | CNC(=O)c1c(-c2ccc(F)cc2)oc2cc(N3C(=O)OC[C@@H]3c3ccc(B(O)O)c(F)c3)c(C3CC3)cc12 | 2 nM | 5 nM | 2.6 nM | 24 nM
3 | CNC(=O)c1c(-c2ccc(F)cc2)oc2cc(N(C3CCCc4cc(B(O)O)ccc43)S(C)(=O)=O)c(C3CC3)cc12 (centres undefined) | 100 nM | 250 nM | 28 nM | > 5000 nM
4 | CNC(=O)c1c(-c2ccc(F)cc2)oc2cc(N(c3cc(Cl)c4c(c3)COB4O)S(C)(=O)=O)c(C3CC3)cc12 | 2.5 nM | 2.5 nM | 1.3 nM | 32 nM
5 | CNC(=O)c1c(-c2ccc(F)cc2)oc2cc(N(C3CCc4c(B(O)O)cccc43)S(C)(=O)=O)c(C3CC3)cc12 (centres undefined) | 40 nM | 320 nM | 11 nM | 1200 nM
6 | CNC(=O)c1c(-c2ccc(F)cc2)oc2cc(-n3nnnc3-c3ccc(B(O)O)c(Cl)c3)c(C3CC3)cc12 | 5 nM | 40 nM | 3.8 nM | 660 nM
7 | CNC(=O)c1c(-c2ccc(F)cc2)oc2cc(N(C(C)c3ccc4c(c3)COB4O)S(C)(=O)=O)c(C3CC3)cc12 (centres undefined) | 25 nM | 830 nM |  | 
8 | CNC(=O)c1c(-c2ccc(F)cc2)oc2cc(N(Cc3ccc(B(O)O)cc3C(F)(F)F)S(C)(=O)=O)c(C3CC3)cc12 | 5 nM | 19 nM |  | 
9 | CNC(=O)c1c(-c2ccc(F)cc2)oc2cc(N(c3cccc(B(O)O)c3)S(C)(=O)=O)c(C3CC3)cc12 | 6.3 nM | 63 nM | 2.2 nM | 1900 nM
10 | CNC(=O)c1c(-c2ccc(F)cc2)oc2cc(N3C(=O)OC[C@@H]3c3cccc(F)c3)c(C3CC3)cc12 | 1600 nM | > 5000 nM | 290 nM | > 5000 nM
11 | CNC(=O)c1c(-c2ccc(F)cc2)oc2cc(N(c3ccc(B(O)O)cc3)S(C)(=O)=O)c(C3CC3)cc12 | 2.5 nM | 6.3 nM | 0.9 nM | 290 nM
12 | CNC(=O)c1c(-c2ccc(F)cc2)oc2cc(-c3ncnn3-c3ccc(B(O)O)c(F)c3)c(C3CC3)cc12 | 2 nM | 4 nM | 1.2 nM | 24 nM
13 | CNC(=O)c1c(-c2ccc(F)cc2)oc2cc(-n3nc(C)nc3-c3ccc(B(O)O)c(F)c3)c(C3CC3)cc12 | 13 nM | 400 nM | 6 nM | 630 nM
14 | CNC(=O)c1c(-c2ccc(F)cc2)oc2cc(N(C3CCc4cc(B(O)O)ccc43)S(C)(=O)=O)c(C3CC3)cc12 (centres undefined) | 50 nM | 500 nM | 9.2 nM | 4400 nM
15 | CNC(=O)c1c(-c2ccc(F)cc2)oc2cc(N3C(=O)OC[C@H]3c3ccc(B(O)O)c(F)c3)c(C3CC3)cc12 | 200 nM | 1600 nM | 140 nM | > 5000 nM
16 | CNC(=O)c1c(-c2ccc(F)cc2)oc2cc(N3C(=O)OCC3c3ccc(B(O)O)cc3)c(C3CC3)cc12 (centres undefined) | 16 nM | 200 nM | 8.3 nM | 2000 nM
17 | CNC(=O)c1c(-c2ccc(F)cc2)oc2cc(N(c3ccc(B(O)O)c(F)c3)S(C)(=O)=O)c(C3CC3)cc12 | 2 nM | 3.2 nM | 1 nM | 39 nM
18 | CNC(=O)c1c(-c2ccc(F)cc2)oc2cc(-c3ncoc3-c3ccc(B(O)O)c(F)c3)c(C3CC3)cc12 | 4 nM | 6.3 nM | 3.4 nM | 30 nM
19 | CNC(=O)c1c(-c2ccc(F)cc2)oc2cc(N3C(=O)CCC3c3ccc(B(O)O)cc3)c(C3CC3)cc12 (centres undefined) | 63 nM | 790 nM |  | 
20 | CNC(=O)c1c(-c2ccc(F)cc2)oc2cc(-n3ncnc3-c3ccc(B(O)O)c(F)c3)c(C3CC3)cc12 | 2 nM | 6.3 nM | 1.1 nM | 46 nM
21 | CNC(=O)c1c(-c2ccc(F)cc2)oc2cc(N3C(=O)OCC3c3cccc(B(O)O)c3)c(C3CC3)cc12 (centres undefined) | 100 nM | 1600 nM |  | 
22 | CNC(=O)c1c(-c2ccc(F)cc2)oc2cc(N(c3ccc(B(O)O)c(C(F)(F)F)c3)S(C)(=O)=O)c(C3CC3)cc12 | 4 nM | 7.9 nM | 1.1 nM | 17 nM
23 | CNC(=O)c1c(-c2ccc(F)cc2)oc2cc(N3C(=O)OCCC3c3ccc(B(O)O)cc3)c(C3CC3)cc12 (centres undefined) | 50 nM | 400 nM | 56 nM | 310 nM
24 | CNC(=O)c1c(-c2ccc(F)cc2)oc2cc(-n3ccnc3-c3ccc(B(O)O)c(F)c3)c(C3CC3)cc12 | 50 nM | 400 nM | 18 nM | 2000 nM
25 | CNC(=O)c1c(-c2ccc(F)cc2)oc2cc(N(c3ccc(B(O)O)c(Cl)c3)S(C)(=O)=O)c(C3CC3)cc12 | 2.5 nM | 4 nM | 1.2 nM | 11 nM
26 | CNC(=O)c1c(-c2ccc(F)cc2)oc2cc(-n3nccc3-c3ccc(B(O)O)c(F)c3)c(C3CC3)cc12 | 4 nM | 7.9 nM | 2.3 nM | 20 nM
